Test results as given in article PMC7496931, “Activation of Sirtuin 2 Inhibitors Employing Photoswitchable Geometry and Aqueous Solubility” (Chemmedchem, 2020).
Where “and” joins values, the source holds several entries; their conditions need not be identical. Equal entries are not always repeated. Where two headings read alike, the source gives them in different places.

Key:
Assay type in all cases: biochemical
[1] = molecular target: T1, Sirt1 (Homo sapiens, UniProt Q96EB6); experiment: Fluorescence-based ZMAL deacetylase activity assay, Sirt1
T1 construct: Expression and purification of Sirt1_133−747, Sirt2_56−356, and Sirt3_118−395 was carried out as described previously; made in house
T1 sequence (Q96EB6 133-747): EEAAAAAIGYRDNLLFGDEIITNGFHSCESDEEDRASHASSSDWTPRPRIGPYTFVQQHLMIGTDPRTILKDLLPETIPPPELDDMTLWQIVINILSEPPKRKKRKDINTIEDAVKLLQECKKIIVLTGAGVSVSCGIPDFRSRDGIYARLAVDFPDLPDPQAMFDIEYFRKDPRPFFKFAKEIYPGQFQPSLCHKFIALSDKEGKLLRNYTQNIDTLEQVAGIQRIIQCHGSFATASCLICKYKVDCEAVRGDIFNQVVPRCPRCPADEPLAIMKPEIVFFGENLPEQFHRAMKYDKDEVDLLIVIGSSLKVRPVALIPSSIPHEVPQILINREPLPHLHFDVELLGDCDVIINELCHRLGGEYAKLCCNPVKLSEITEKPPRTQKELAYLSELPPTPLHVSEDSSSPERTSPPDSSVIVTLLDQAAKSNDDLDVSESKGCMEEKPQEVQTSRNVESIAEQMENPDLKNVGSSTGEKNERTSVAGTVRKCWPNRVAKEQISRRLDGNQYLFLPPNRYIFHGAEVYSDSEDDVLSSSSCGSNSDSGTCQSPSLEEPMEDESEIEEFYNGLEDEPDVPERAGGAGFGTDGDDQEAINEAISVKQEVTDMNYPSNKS
Experimental: (§1) The effect of the compounds on deacetylase activity of three human sirtuin isotypes (Sirt1–3) was investigated by a homogeneous fluorescence‐based assay, using (Z)‐Lys(acetyl)‐AMC (ZMAL) as substrate. In order to determine the impact of photoisomerization, the respective compounds were irradiated (365 nm, 5 min) in DMSO prior to incubation in the enzyme assay mixture. The results of the irradiated probes were finally compared to non‐irradiated measurements.
(§2) Cloning, expression and purification of recombinant proteins: Expression and purification of Sirt1_133−747, Sirt2_56−356, and Sirt3_118−395 was carried out as described previously.27 Identity and purity were verified by SDS‐PAGE.
(§3) Fluorescence‐based activity assay: The inhibitory effect of compounds on Sirt1–3 was detected via a previously reported fluorescence‐based assay.29 The synthetic substrate (Z)‐Lys(acetyl)‐AMC (ZMAL) is deacetylated by sirtuins, followed by tryptic digestion and thereby release of 7‐aminomethylcoumarin, leading to a fluorescent readout. Inhibition was determined by comparing percentage substrate conversion to a DMSO control after subtraction of the blank fluorescence signal. All compounds were tested at 100 or 50 μM and 10 μM respectively. […] IC50 values were calculated with OriginPro 9.0 G using a non‐linear regression to fit the dose response curve (Figure S6). An enzyme‐free blank control and a 100 % conversion control using AMC instead of ZMAL were measured as well. Inhibition measurements were performed in biological duplicates for all compounds. […]
(§4) Fluorescence-Based Activity Assay (ZMAL-Assay)
(§5) The influence of the synthesized compounds on the deacetylase activity of the class I sirtuins Sirt1–3 was determined in a homogenous fluorescence-based enzyme assay, using the artificial substrate Z-(Ac)Lys-AMC (ZMAL). ZMAL is processed by sirtuins yielding Z-Lys-AMC.
(§6) The latter is subsequently cleaved by tryptic digestion, releasing 7-amino-4-methylcoumarin (AMC), excitation of which leads to a fluorescent read out (λex=390 nm; λem=460 nm). Instead, […]
(§7) contribute to the fluorescence signal. Therefore, the fluorescence intensity is proportional to the activity of the respective sirtuin.
(§8) After subtraction of the blank fluorescence signal (without enzyme) from the signal of the respective probe, the residual signal intensity is related to a 100 % conversion control (AMC), […]
(§9) yielding the percentage substrate conversion. Comparison of the determined substrate conversion with a no-inhibition DMSO control yields the percentage inhibition at the respective […]
(§10) For determination of IC50, inhibitory activity of the respective compound was determined at 8 to 10 distinct concentrations. The measured values were analysed by a non-linear fit to the dose-response curve using a four parameter logistic model (Figure S6):
(§11) Figure S6: Non-linear regression of the dose-response curves of compounds 15c and 15f at the thermal equilibrium (∆, black) and after 5 minutes of 365 nm irradiation (red). […]
A maximal polarization control using just DMSO and a minimal polarization control using 1 µL of the 400 µM solution of 22 instead of inhibitor were performed as well as a blank control containing 1 µL of DMSO in 19 µL assay buffer. The mixture was incubated 10 min at 37 °C […]
(1 picture or pasted object on this page, not shown here)

[2] = molecular target: T2, Sirt2 (Homo sapiens, UniProt Q8IXJ6); experiment: Fluorescence-based ZMAL deacetylase activity assay, Sirt2
T2 construct: Expression and purification of Sirt1_133−747, Sirt2_56−356, and Sirt3_118−395 was carried out as described previously; made in house
T2 sequence (Q8IXJ6 56-356): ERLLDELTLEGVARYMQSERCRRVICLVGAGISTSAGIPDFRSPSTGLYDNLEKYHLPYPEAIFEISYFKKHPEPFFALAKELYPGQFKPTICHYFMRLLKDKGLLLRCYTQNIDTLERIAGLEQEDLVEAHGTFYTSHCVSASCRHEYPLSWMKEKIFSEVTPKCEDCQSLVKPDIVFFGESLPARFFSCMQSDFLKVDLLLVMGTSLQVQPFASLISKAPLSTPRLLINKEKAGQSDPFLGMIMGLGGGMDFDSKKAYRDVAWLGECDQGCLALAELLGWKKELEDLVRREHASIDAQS
Experimental: as §1, §2, §3, §4, §5, §6, §7, §8, §9, §10, §11
(§12) A maximal polarization control using just DMSO and a minimal polarization control using 1 µL of the 400 µM solution of 22 instead of inhibitor were performed as well as a blank control containing 1 µL of DMSO in 19 µL assay buffer. The mixture was incubated 10 min at 37 °C

[3] = molecular target: T3, Sirt3 (Homo sapiens, UniProt Q9NTG7); experiment: Fluorescence-based ZMAL deacetylase activity assay, Sirt3; parameters: key to Sirt3 inhibition Δ (class) / Sirt3 inhibition PSS [365 nm] (class): n.i.: no inhibition detected (<30 % @ 100 μM); u.i.: unspecific interactions
T3 construct: Expression and purification of Sirt1_133−747, Sirt2_56−356, and Sirt3_118−395 was carried out as described previously; made in house
T3 sequence (Q9NTG7 118-395): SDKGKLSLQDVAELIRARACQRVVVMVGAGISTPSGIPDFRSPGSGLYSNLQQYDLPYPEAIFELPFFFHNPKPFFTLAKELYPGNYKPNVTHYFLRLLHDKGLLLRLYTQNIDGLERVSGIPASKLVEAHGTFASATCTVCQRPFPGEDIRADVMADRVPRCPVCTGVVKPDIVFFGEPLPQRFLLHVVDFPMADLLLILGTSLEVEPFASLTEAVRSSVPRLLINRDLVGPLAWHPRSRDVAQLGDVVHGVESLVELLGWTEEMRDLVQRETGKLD
Experimental: as §1, §2, §3, §4, §5, §6, §7, §8, §9, §10, §11, §12

[4] = PSS after 5 min UV irradiation (365 nm), read-out: Sirt1 inhibition PSS [365 nm] (class)
[5] = thermal equilibrium (Δ), read-out: Sirt1 inhibition Δ (class)
[6] = PSS after 5 min UV irradiation (365 nm), read-out: Sirt2 inhibition PSS [365 nm], percent inhibition (converted)
[7] = thermal equilibrium (Δ), read-out: Sirt2 inhibition Δ, percent inhibition (converted)
[8] = thermal equilibrium (Δ), read-out: Sirt2 inhibition Δ, percent inhibition
[9] = PSS after 5 min UV irradiation (365 nm), read-out: Sirt3 inhibition PSS [365 nm], percent inhibition
[10] = thermal equilibrium (Δ), read-out: Sirt3 inhibition Δ, percent inhibition
[11] = PSS after 5 min UV irradiation (365 nm), read-out: Sirt2 inhibition PSS [365 nm], IC50
[12] = thermal equilibrium (Δ), read-out: Sirt2 inhibition Δ, IC50
[13] = PSS after 5 min UV irradiation (365 nm)
[14] = PSS after 5 min UV irradiation (365 nm), read-out: Sirt2 inhibition PSS [365 nm], percent inhibition

Structure (SMILES) | inhibition at 100 µM [1, 4] [%] | inhibition at 100 µM [1, 5] [%] | inhibition at 10 µM [2, 6] [%] | inhibition at 10 µM [2, 7] [%] | Sirt3 inhibition PSS [365 nm] (class) [3, 13] | Sirt3 inhibition Δ (class) ([3]; thermal equilibrium (Δ)) | also measured
NC(=O)c1cncc(/N=N/c2c(O)ccc3ccccc23)c1 [7 c] |  |  |  |  |  |  | Sirt1 inhibition (class) ([1]; non-irradiated): n.i. (n.i.: no inhibition detected (<30 % @ 100 μM)); inhibition at 10 µM ([2]; non-irradiated, read-out: Sirt2 inhibition, percent inhibition relative to controls): 55%; inhibition at 10 µM ([3]; non-irradiated, read-out: Sirt3 inhibition, percent inhibition relative to controls): 64%
Cc1cc(/N=N/c2cncc(C(N)=O)c2)cc(C)c1N [7 f] |  |  |  |  |  |  | inhibition at 100 µM ([1]; @ 100 μM, non-irradiated, read-out: Sirt1 inhibition, percent inhibition relative to controls): 47%; IC50 ([2]; non-irradiated, read-out: Sirt2 inhibition, IC50): 6 µM and 5.8 µM; IC50 ([3]; non-irradiated, read-out: Sirt3 inhibition, IC50): 9 µM and 9.4 µM
CC(=O)Nc1c(C)cc(/N=N/c2cncc(C(N)=O)c2)cc1C [9 a] | < 30 | < 30 | 11 | 17 |  |  | inhibition at 100 µM [2, 8]: 65%; inhibition at 100 µM [3, 9]: 52%; inhibition at 100 µM [3, 10]: 68%
CCCC(=O)Nc1c(C)cc(/N=N/c2cncc(C(N)=O)c2)cc1C [9 b] | < 30 | < 30 | 4 | 30 |  |  | inhibition at 100 µM [3, 9]: 52%; inhibition at 100 µM [3, 10]: 80%
CCCCCC(=O)Nc1c(C)cc(/N=N/c2cncc(C(N)=O)c2)cc1C [9 c] | < 30 | < 30 | 24 | 40 |  |  | inhibition at 10 µM [3, 9]: 3%; inhibition at 10 µM [3, 10]: 20%
CCCCCCCC(=O)Nc1c(C)cc(/N=N/c2cncc(C(N)=O)c2)cc1C [9 d] | < 30 | < 30 | 54 | 26 | u.i. | u.i. | increase of Sirt2 inhibition upon 365 nm irradiation (factor) ([2]; PSS 365 nm versus thermal equilibrium): about fivefold; IC50 [2, 11]: 7.9 ± 0.7 µM; IC50 [2, 12]: 44 ± 9.5 µM
CCCCCCCCCC(=O)Nc1c(C)cc(/N=N/c2cncc(C(N)=O)c2)cc1C [9 e] | < 30 | < 30 | 78 | 26 | u.i. | u.i. | 
CCCCCCCCCCCC(=O)Nc1c(C)cc(/N=N/c2cncc(C(N)=O)c2)cc1C [9 f] | < 30 | < 30 | 65 | 46 | u.i. | u.i. | 
CCCCCCCCCCCCCC(=O)Nc1c(C)cc(/N=N/c2cncc(C(N)=O)c2)cc1C [9 g] | < 30 | < 30 |  |  | u.i. | u.i. | IC50 [2, 11]: 0.9 ± 0.2 µM; IC50 [2, 12]: 2.2 ± 0.3 µM
Cc1cc(/N=N/c2cncc(C(N)=O)c2)cc(C)c1NC(=O)c1ccccc1 [9 h] | < 30 | < 30 |  |  |  | n.i. (n.i.: no inhibition detected (<30 % @ 100 μM)) | inhibition at 100 µM [2, 14]: 52%; inhibition at 100 µM [2, 8]: 27%; inhibition at 100 µM [3, 9]: 32%
Cc1cc(/N=N/c2cncc(C(N)=O)c2)cc(C)c1NC(=O)c1ccc(F)cc1 [9 i] | < 30 | < 30 | 15 | 15 | n.i. (n.i.: no inhibition detected (<30 % @ 100 μM)) | n.i. (n.i.: no inhibition detected (<30 % @ 100 μM)) | 
Cc1cc(/N=N/c2cncc(C(N)=O)c2)cc(C)c1NC(=O)c1ccc(-c2cccs2)cc1 [9 j] | < 30 | < 30 |  |  | u.i. | u.i. | inhibition at 100 µM [2, 14]: 59%; inhibition at 100 µM [2, 8]: 80%
Cc1cc(/N=N/c2cncc(C(N)=O)c2)cc(C)c1NC(=O)C12CC3CC(CC(C3)C1)C2 [9 k] | < 30 | < 30 |  |  | n.i. (n.i.: no inhibition detected (<30 % @ 100 μM)) | n.i. (n.i.: no inhibition detected (<30 % @ 100 μM)) | inhibition at 100 µM [2, 14]: 71%; inhibition at 100 µM [2, 8]: 43%
CC(C)(C)OC(=O)c1ccc(/N=N/c2cncc(C(N)=O)c2)cc1 [15 a] |  | < 30 |  |  |  |  | inhibition at 10 µM ([1]; @ 10 μM, PSS after 5 min UV irradiation (365 nm), read-out: Sirt1 inhibition PSS [365 nm], percent inhibition): 7%; IC50 [2, 11]: 6.8 ± 0.4 µM; IC50 [2, 12]: 6 ± 1.1 µM; inhibition at 10 µM [3, 9]: 45%; inhibition at 10 µM [3, 10]: 42%
CC(C)(C)OC(=O)Cc1ccc(/N=N/c2cncc(C(N)=O)c2)cc1 [15 b] |  |  |  |  |  |  | inhibition at 100 µM ([1]; @ 100 μM, PSS after 5 min UV irradiation (365 nm), read-out: Sirt1 inhibition PSS [365 nm], percent inhibition): 44%; inhibition at 100 µM ([1]; @ 100 μM, thermal equilibrium (Δ), read-out: Sirt1 inhibition Δ, percent inhibition): 35%; IC50 [2, 11]: 6.9 ± 0.6 µM; IC50 [2, 12]: 3.9 ± 0.2 µM; inhibition at 10 µM [3, 9]: 30%; inhibition at 10 µM [3, 10]: 58%
